Patent publication US6686333B1, “Inhibition of HIV replication using soluble Tat peptide analogs” (priority 1996, dated 2004)

How the values were obtained:
[1] = tested on: Tat transactivation of the HIV-1 promoter; assay: Transfection and CAT assay: Tat transactivation of HIV-1 LTR-CAT reporter in electroporated CEM lymphocytes; type: cell-based; settings: for Tat transactivation (CAT) in presence of peptide: suppression from 95.7, Tat protein 1 μg, peptide 5 μg, HIV-1 LTR-CAT 5 μg, CEM
Method: Initial studies focused on the analysis of a series of Tat peptide analogs, containing various amino acid substitutions, for their ability to inhibit Tat transactivation of the HIV-1 promoter. CEM lymphocytes, grown to early- to mid-log phase, were electroporated with the Tat protein (1 μg), Tat core peptide 36-50 (5 μg) and the HIV-1 LTR-CAT reporter (5 μg).
(§1) Cells were electroporated as described previously (Kashanchi F, et al. (1992), Nucleic Acids Res, 20:4673-4674). CEM CD4^+ lymphocytes (12D7) (as well as U1 and HeLa cells described in subsequent examples) were kept at a density of 0.5 to 0.8×10^6 cells/ml with media added daily. Typically, 5×10^6 cells were electroporated with purified peptides, Tat protein and/or 5 μg of a reporter plasmid. Synthetic Tat peptides were purified by HPLC to 95 percent purity (Peptide Technologies Corporation, Gaithersburg, Md.). All peptides were analyzed for purity on a 4-20 percent gradient SDS/PAGE followed by silver staining. Recombinant Tat protein was purified by reverse phase HPLC and tested for functional activity in an in vitro transcription assay and in vivo electroporation into CEM cells (Kashanchi F, et al. (1992), Nucleic Acids Res, 20:4673-4674; Bohan Calif., et al. (1992) Gene Expr, 2:391-407). Tat peptide, Tat protein, and the reporter HIV LTR-CAT were mixed with cells and electroporated using a cell porater apparatus (Gibco/BRL, Gaithersburg, Md.). Cell mixtures were electroporated at 800 μF, 230 volts, in RPMI 1640 media without fetal calf serum. Following electroporation, cells were plated in 10 ml of complete media and samples collected 48 hours later for either CAT assay, p24 Gag antigen capture assay or northern blot analysis. Samples receiving rTNF-α (R & D System, Minneapolis, MN) after electroporation were collected 48 hours post-treatment for p24 Gag antigen capture assay (ABI, Bethesda, Md.).

HTLV-1 promoter = assay: CAT assay with HTLV-1 LTR (pU3R CAT) reporter, basal and Tax1 transactivated; type: cell-based; settings: for basal transcription of the HTLV-1 promoter: decreased from 19
Method: as §1
(§2) It was of interest to determine if the peptides inhibited transcription from other polymerase II promoters. We have tested seven promoters including HTLV-1, CMV, PTHrP, IgH, RAS, RSV, and SIV. Each promoter, cloned upstream of the CAT reporter gene, was cotransfected individually with the Tat peptides under identical conditions. Electroporation was as in Example 1 but reporter genes used were HTLV-1 LTR (pU3R CAT, 5 μg) or pCMV-CAT (5 μg), containing the CMV promoter. […] For example, basal transcription of the HTLV-1 promoter decreased from 19 to 15.6 and 16.4 percent using 1 and 5,μg of the peptide analog 41/44. Similarly, Tat peptide analog 41/44 decreased Tax1 (1 μg) transactivated transcription approximately two-fold (49.2 to 22.8 percent). In other control experiments, transcription from the CMV promoter was decreased from 17.8 to 9.04 and 6.7 percent in the presence of 1 or 5 μg of Tat peptide analog 41/44.

CMV promoter = assay: CAT assay with pCMV-CAT reporter; type: cell-based; settings: decreased from 17.8
Method: as §1, with “Samples receiving rTNF-α (R & D System, Minneapolis, MN) after electroporation were collected 48 hours post-treatment for p24 Gag antigen capture assay (ABI, Bethesda, Md.).” left out

[2] = tested on: HTLV-1, CMV, PTHrP, IgH, RAS, RSV, and SIV promoters; assay: CAT assays with other polymerase II promoters; type: cell-based; settings: seven promoters upstream of CAT, cotransfected with Tat peptides
Method: as §2

[3] = tested on: HIV virus replication in U1 cells; assay: Tat-induced virus production in latently infected U1 cells, p24 antigen capture assay; type: cell-based, HIV-1; settings: Tat protein 2.5 μg
Method: as §1, with “Samples receiving rTNF-α (R & D System, Minneapolis, MN) after electroporation were collected 48 hours post-treatment for p24 Gag antigen capture assay (ABI, Bethesda, Md.).” left out

[4] = tested on: HIV-1 virus replication in U1/U937 co-cultivation; assay: Co-cultivation of transfected U1 cells with U937 monocyte cell line; type: cell-based; settings: seven days of co-cultivation U1:U937 1:5; peptide 2.5 μg with Tat protein
Description: It was of interest to determine whether the level of virus particles produced in the presence of Tat peptide analog 41/44 was sufficient to initiate a second round of virus replication. This is an important point to consider when designing specific inhibitors for HIV, since detection of p24 or reverse transcriptase in particles is not necessarily an indication of infectious particles. Dimitrov and Martin, Nature, 375:194-195 (1994). To address this question, we utilized co-cultivation assays in which the induced Ul cells were co-cultivated with the parental U937 monocyte cell line.
Transfected U1 cells (5×10^6) were co-cultivated with the U937 cells 48 hrs after transfection. The co-cultivation assay was initially tested using either a 1:1, 1:5, or 1:25 ratio of infected to uninfected cells. A 1:5 co-cultivation was determined to be the optimal ratio in obtaining the highest viral production within a 2 week period. Cells were co-cultivated in a total of 4 mls for a period of 2 weeks. After the fist week, 2 mls of media cells was removed and 2 mls of fresh media added. Both U937 and CEM cells were seeded at a density of 0.5×10^6 cells per culture dish prior to the co-cultivation experiment.
Initially, cells were electroporated with either wild type (2.5 μg) or peptide analog 41/44 (2.5 μg), along with Tat protein. […]

HIV-1 viral mRNA = assay: Northern blot of U1 cells, HIV-1 viral mRNA; type: cell-based; settings: U1 cells treated with Tat and peptide, 48 hrs
Method: (§3) For northern blot analysis, U1 or HLM1 (Tat HIV proviral clone, Sadaie M R, et al. (1994), Virology, 202:513-518) cells were transfected with either Tat protein, or Tat protein in combination with peptides and collected 48 hrs later. Total RNA was extracted using the Trizol reagent (Gibco/BRL). RNA concentration was measured and equivalent amounts of RNA (5 μg) were loaded on a formaldehyde-agarose gel. The RNA was blotted onto nitrocellulose and hybridized with a randomly primed ^32P-labelled HIV-1 proviral genome BH10 (Lofstrand, Inc.), histone H2b, β-Actin or GAPDH probe (Oncor Science, Inc.). Blots were washed, exposed and quantitated using a PhosphorImager (Molecular Dynamics) […].
(§4) Cellular RNAs including actin, histone H2b, and GAPDH, were monitored in cells treated with Tat and peptide analogs. […] In contrast, no change in the expression of the cellular GAPDH gene was observed.

cellular GAPDH gene = assay: Northern blot of U1 cells, cellular RNA; type: cell-based; settings: U1 cells treated with Tat and peptide
Method: as §3, §4

[5] = tested on: TBP/Tat-activated transcription; assay: Gal4-Tat / CMV-TBP activated minimal HIV-1 promoter CAT assay in CEM cells; type: cell-based; settings: CEM T-cells, Gal4-TATA+/TAR- reporter
Method: It was of interest to determine if the Tat peptide analog targeted the interaction of Tat with TBP in vivo. For these experiments, we used a minimal HIV-1 promoter (−31 to +21) with Gal4 binding sites located upstream of the promoter. CEM cells were transfected with combinations of Gal4-TATA^+/TAR^− reporter plasmid, Gal4-Tat and a CMV-TBP expression plasmid. Southgate CD, et al. (1991), Genes Dev, 5:2496-2507; Horikoshi N, et al. (1995), Mol Cell Biol, 15:227-234. Peptides were added at the time of electroporation. Following electroporation, cells were plated in complete media, harvested at 48 hours and CAT assays performed. The Gal4-TAT^+/TAR^− plasmid contains six Gal4 binding sites, followed by the HIV sequence from −31 to […]. This construct contains no Sp1 sites or a TAR element.
The ability of Gal4-Tat to activate this promoter is dependent upon the presence of exogenously added TBP. […] Xhou Q, et al. (1995), EMBO J, 14:321-328; Huang L M, et al. (1994), EMBO, 13:2886-2896. We next examined if the peptides were capable of downregulating the TBP/Tat-activated transcription by electroporating CEM T-cells with either wild type or peptide 41/44.

V-C-F-T-T-A-A-L-G-I-A-Y-G-R-K (SEQ ID NO:8) (VCFTTAALGIAYGRK) [peptide 41/46]
Tat transactivation (CAT) in presence of peptide [1]: 5.5%

V-C-F-T-T-A-A-L-A-I-S-Y-G-R-K (SEQ ID NO:7) (VCFTTAALSISYGRK) [Tat peptide analog 41/44]
Tat transactivation (CAT) in presence of peptide [1]: 1.1% | basal transcription of the HTLV-1 promoter (HTLV-1 promoter; 1 μg peptide): 15.6% | basal transcription of the HTLV-1 promoter (HTLV-1 promoter; 5 μg peptide): 16.4% | decrease of Tax1 transactivated transcription (HTLV-1 promoter; Tax1 1 μg, 49.2 to 22.8 percent): approximately two-fold | Tax1 transactivated transcription (HTLV-1 promoter; Tax1 1 μg, decreased from 49.2): 22.8% | transcription from the CMV promoter (CMV promoter; 1 μg peptide): 9.04% | transcription from the CMV promoter (CMV promoter; 5 μg peptide): 6.7% | inhibition of transcription from other polymerase II promoters [2]: minimal inhibition | inhibition of virus replication in U1 cells ([3]; comparable experiment with 36-72 peptides): approximately 75% | inhibition of Tat-induced virus production in U1 cells ([3]; peptide 5 μg, in comparison to wild type peptide 5 μg, p24, 48 hours): approximately 85% | decrease of virus production in co-cultivation [4]: 85% | level of HIV-1 viral mRNA (HIV-1 viral mRNA): a decrease in the level of HIV-1 viral mRNA was detected | expression of the cellular GAPDH gene (cellular GAPDH gene): no change | inhibition of TBP/Tat-activated transcription [5]: inhibited TBP/Tat-activated transcription

V-C-F-T-T-K-A-L-G-I-S-Y-G-R-K (SEQ ID NO:2) (VCFTTKALGISYGRK) [Tat 36-50, wild type Tat core peptide, amino acids 36-50, reference compound]
drop in transcription activity ([1]; peptide included in the transfection with Tat protein): no apparent drop in transcription activity | decrease of virus production in co-cultivation [4]: did not inhibit HIV virus replication

V-C-F-T-T-A-A-L-G-I-S-A-G-R-K (SEQ ID NO:9) (VCFTTAALGISAGRK) [Tat 36-50 (41/47)]
Tat transactivation (CAT) in presence of peptide [1]: 12%
